This is an account of results in patent US20140039056A1, “BROMFENAC ORGANIC SALTS AND PREPARATION METHOD, COMPOSITION AND USE THEREOF” (SHENYANG XINGQI PHARMACEUTICAL CO., LTD., priority 2010, published 2014).

Where a name gives a salt, the structure may show the parent alone. Read-outs that look alike come from different tables or passages of the source.

Series [1] is described as follows: In vitro transdermal absorption test (diffusion cell, ex vivo rat skin). As to conditions: for Accumulative osmolality: ex vivo rat skin, 32° C., n = 3; for Total osmolality of 24 h: 24 h accumulative osmolality x effective area 1.23 cm^2; for transdermal absorption amount relative to bromfenac sodium: in vitro; for Osmotic rate: slope of accumulative osmolality Q against time; for Osmotic percentage: total osmolality of 24 h / mass added to supplying chamber. The procedure:
Preparation of solutions of bromfenac salts: bromfenac sodium, bromfenac diethylamine salt of Example 1, and bromfenac trometamol salt of Example 2 were precisely weighed separately to obtain 0.25 g samples, which were separately placed in 25 ml volumetric flasks, and phosphate buffered solution (pH value was 7.0) was used to reach the metered volume to obtain stock solutions for standby use.
Chromatography conditions: detector: ultraviolet absorption detector (wavelength: 266 nm). Chromatography column: octadecyl silica column (4.0 mm×150 mm, 5 μm). Mobile phase: precisely weighed ammonium acetate 3.85 g, added with water to the metered volume of 1000 mL. 600 mL of this solution was taken, and added with 250 mL of methanol and 150 mL of tetrahydrofuran. Flow rate: 1.5 mL/min.
Plotting standard curves: bromfenac sodium, bromfenac diethylamine salt and bromfenac trometamol salt in suitable amounts were precisely weighed separately, dissolved in mobile phase, diluted separately to form test solutions with concentrations of 10, 30, 60, 120, 300, 700 μg/ml, which were separately weighed precisely to take 20 μl and injected into chromatography and separately assayed.
Transdermal absorption test: ex vivo skins of back and abdomen of 200-260 g rats were taken and used as osmotic membranes, which were fixed with suture on diffusion cells (diffusion cells having a diameter of 1.25 cm, and an effective area of 1.23 cm^2). Stock solutions of bromfenac sodium, bromfenac diethylamine salt and bromfenac trometamol salt in an amount of 2 ml were separately added to supplying chamber, 100 ml of physiological saline was used as receiving solution in receiving cells, kept at a constant temperature of 32° C., stirred (250 r/min). 5 ml samples of receiving solutions were taken precisely with time intervals of 0, 2, 4, 6, 8, 10, 12, 24 hours, filtered, measured according to the above method to determine first-order light spectrum derivative absorption values and calculate contents, and accumulative osmolality Q was calculated according to the following formula;
In the above formula, c is concentration of receiving solution sample; v1 is volume of sample as taken at every turn; v2 is volume of diffusion cell; A is diffusion area. Diagrams were plotted by using t as abscissa, Q as ordinate to obtain osmosis curves of bromfenac sodium, bromfenac diethylamine salt and bromfenac trometamol salt; linear regression was performed using accumulative osmolality Q against time, the obtained slope K was transdermal osmotic rate; the accumulative osmolality of 24 hours was multiplied by the effective osmotic area (1.23 cm^2) to obtain total osmolality of 24 hours; and the total osmolality of 24 hours was divided by the mass of the added product in the supplying chamber to obtain osmotic percentage.

The conditions of series [2]: analgesic effect; cited from earlier work.
The conditions of series [3]: cited from earlier work.

`Nc1c(CC(=O)O)cccc1C(=O)c1ccc(Br)cc1` [Bromfenac diethylamine salt, bromfenac diethylamine salt]: the Accumulative osmolality is on record as 322.8 μg/cm^2 in series [1] (2 hours); 964.1 μg/cm^2 in series [1] (4 hours); 1898.6 μg/cm^2 in series [1] (6 hours); 2721.8 μg/cm^2 in series [1] (8 hours); 3303.0 μg/cm^2 in series [1] (10 hours); 4123.6 μg/cm^2 in series [1] (12 hours). This molecule returned an Accumulative osmolality in series [1] (24 hours) of 8426.7 μg/cm^2. The “Total osmolality of 24 h” value in series [1] stood at 10360.0 µg. In series [1] (24 hours), the “transdermal absorption amount relative to bromfenac sodium” value is reported as 1.85 times. The Osmotic rate in series [1] worked out at 369.04 μg/cm^2 · h^−1. The Osmotic percentage in series [1] was 51.80%.

Turning to `Nc1c(CC(=O)O)cccc1C(=O)c1ccc(Br)cc1` [Bromfenac trometamol salt, bromfenac trometamol salt], the Accumulative osmolality was 277.2 μg/cm^2 in series [1] (2 hours); 632.5 μg/cm^2 in series [1] (4 hours); 1268.3 μg/cm^2 in series [1] (6 hours); 2089.6 μg/cm^2 in series [1] (8 hours); 2736.1 μg/cm^2 in series [1] (10 hours); 3085.7 μg/cm^2 in series [1] (12 hours). In series [1] (24 hours), this molecule registered an Accumulative osmolality of 7326.9 μg/cm^2. Moreover, the “Total osmolality of 24 h” value in series [1] is 9010.0 µg. The “transdermal absorption amount relative to bromfenac sodium” value in series [1] (24 hours) came out at 1.61 times. In series [1], this molecule came in with an Osmotic rate of 320.61 μg/cm^2 · h^−1. Also, the Osmotic percentage in series [1] came out at 45.05%.

On to `Nc1c(CC(=O)[O-])cccc1C(=O)c1ccc(Br)cc1.[Na+]` [Bromfenac sodium, 2-amino-3-(4-bromobenzoyl)phenylacetic acid sodium salt sesquialter hydrate, reference compound], for which the “potency relative to other non-steroid anti-inflammatory agents” value in series [2] is recorded as 10 times. Besides, the Accumulative osmolality in series [1] (2 hours) turned out to be 45.5 μg/cm^2; in series [1] (4 hours) it was 118.5 μg/cm^2; in series [1] (6 hours) it was 340.8 μg/cm^2; in series [1] (8 hours), 708.6 μg/cm^2; in series [1] (10 hours) it was 1231.3 μg/cm^2; in series [1] (12 hours) it was 2214.5 μg/cm^2. In series [1] (24 hours), this molecule returned an Accumulative osmolality of 4554.1 μg/cm^2. In addition, the “Total osmolality of 24 h” value in series [1] amounted to 5600.0 µg. In series [1], this molecule showed an Osmotic rate of 219.05 μg/cm^2 · h^−1. Besides, the Osmotic percentage in series [1] amounted to 28.0%. The solubility entry is given as “almost insoluble” in series [3] (0.1M hydrochloric acid solution); “almost insoluble” in series [3] (acetone); “almost insoluble” in series [3] (acetonitrile); “slight soluble” in series [3] (ethanol); “soluble” in series [3] (methanol); “soluble” in series [3] (water).
